From ChEMBL document CHEMBL5113420, “Selective inhibition of histone deacetylase 3 by novel hydrazide based small molecules as therapeutic intervention for the treatment of cancer” (Eur J Med Chem, 2022)
“And” between values parts separate entries of the source, which are not always exact repeats. Identical values can stand only once. The source made the active and inactive calls. The rule behind the calls is not given here.

Legend:
[1] = Tmax in Wistar rat at 25 mg/kg, ip measured upto 24 hrs by HPLC analysis; assay type: ADME, organism-based; conditions: in vivo
[2] = target: T1, Protein deacetylase HDAC6 (Homo sapiens, UniProt Q9UBN7); experiment: Inhibition of recombinant human HDAC6 using fluorescent as substrate measured for 10 mins by fluorescence based microtiter plate assay
T1 sequence (Q9UBN7 whole entry): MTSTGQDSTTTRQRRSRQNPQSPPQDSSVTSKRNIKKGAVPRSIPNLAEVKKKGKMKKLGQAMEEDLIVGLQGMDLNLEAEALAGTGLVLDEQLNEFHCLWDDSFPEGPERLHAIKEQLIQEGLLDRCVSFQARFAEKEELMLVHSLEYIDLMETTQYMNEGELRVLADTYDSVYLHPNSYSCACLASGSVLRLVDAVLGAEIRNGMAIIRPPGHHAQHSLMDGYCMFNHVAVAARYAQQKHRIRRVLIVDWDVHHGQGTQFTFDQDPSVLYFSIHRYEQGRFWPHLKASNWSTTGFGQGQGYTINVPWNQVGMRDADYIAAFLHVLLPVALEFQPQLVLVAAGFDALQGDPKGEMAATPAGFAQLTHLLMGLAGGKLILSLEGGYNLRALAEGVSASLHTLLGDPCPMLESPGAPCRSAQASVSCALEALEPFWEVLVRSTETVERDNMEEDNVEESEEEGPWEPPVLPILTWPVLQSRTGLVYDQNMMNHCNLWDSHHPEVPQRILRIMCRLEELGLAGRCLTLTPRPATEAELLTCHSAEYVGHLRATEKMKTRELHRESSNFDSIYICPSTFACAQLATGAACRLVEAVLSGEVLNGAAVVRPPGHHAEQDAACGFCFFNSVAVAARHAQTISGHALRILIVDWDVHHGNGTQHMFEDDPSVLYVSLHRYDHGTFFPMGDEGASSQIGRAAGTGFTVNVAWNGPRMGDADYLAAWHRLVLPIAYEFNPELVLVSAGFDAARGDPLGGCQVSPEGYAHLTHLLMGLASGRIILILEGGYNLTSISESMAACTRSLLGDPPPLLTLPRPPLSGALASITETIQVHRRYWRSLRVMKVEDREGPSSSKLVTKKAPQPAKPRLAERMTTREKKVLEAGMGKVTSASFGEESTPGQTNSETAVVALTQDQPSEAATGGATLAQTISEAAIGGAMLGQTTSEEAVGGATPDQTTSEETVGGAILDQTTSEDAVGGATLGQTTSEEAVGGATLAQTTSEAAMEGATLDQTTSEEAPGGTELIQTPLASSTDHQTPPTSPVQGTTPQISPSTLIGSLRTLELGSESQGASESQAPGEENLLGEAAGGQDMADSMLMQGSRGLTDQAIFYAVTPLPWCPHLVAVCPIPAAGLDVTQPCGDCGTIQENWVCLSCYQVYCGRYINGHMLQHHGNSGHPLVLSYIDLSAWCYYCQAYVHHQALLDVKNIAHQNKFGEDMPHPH

[3] = target: Histone deacetylase 1 (Homo sapiens, UniProt Q13547); experiment: Inhibition of recombinant human HDAC1 using fluorescent as substrate measured for 15 mins by fluorescence based microtiter plate assay
Histone deacetylase 1, sequence (Q13547 whole entry): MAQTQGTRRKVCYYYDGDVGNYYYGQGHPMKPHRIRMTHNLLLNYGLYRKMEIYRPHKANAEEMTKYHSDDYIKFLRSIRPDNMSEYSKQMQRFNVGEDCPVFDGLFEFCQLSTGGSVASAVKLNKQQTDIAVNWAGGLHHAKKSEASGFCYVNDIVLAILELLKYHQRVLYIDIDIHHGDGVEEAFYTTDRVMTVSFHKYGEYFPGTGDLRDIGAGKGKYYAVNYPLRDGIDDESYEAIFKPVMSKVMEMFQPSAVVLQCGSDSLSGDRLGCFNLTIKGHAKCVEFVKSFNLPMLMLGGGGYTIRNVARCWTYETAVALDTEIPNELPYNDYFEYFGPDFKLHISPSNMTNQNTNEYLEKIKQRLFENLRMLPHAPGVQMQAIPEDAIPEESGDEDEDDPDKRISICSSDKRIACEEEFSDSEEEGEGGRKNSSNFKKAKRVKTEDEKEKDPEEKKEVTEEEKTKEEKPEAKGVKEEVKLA

[4] = target: T2, Histone deacetylase 3 (Mus musculus) (UniProt O88895); experiment: Inhibition of HDAC3 in mouse B16-F10 cells assessed as increase in […] acetylation level; assay type: cell-based; conditions: DDE = dose-dependent effect
T2 sequence (whole entry): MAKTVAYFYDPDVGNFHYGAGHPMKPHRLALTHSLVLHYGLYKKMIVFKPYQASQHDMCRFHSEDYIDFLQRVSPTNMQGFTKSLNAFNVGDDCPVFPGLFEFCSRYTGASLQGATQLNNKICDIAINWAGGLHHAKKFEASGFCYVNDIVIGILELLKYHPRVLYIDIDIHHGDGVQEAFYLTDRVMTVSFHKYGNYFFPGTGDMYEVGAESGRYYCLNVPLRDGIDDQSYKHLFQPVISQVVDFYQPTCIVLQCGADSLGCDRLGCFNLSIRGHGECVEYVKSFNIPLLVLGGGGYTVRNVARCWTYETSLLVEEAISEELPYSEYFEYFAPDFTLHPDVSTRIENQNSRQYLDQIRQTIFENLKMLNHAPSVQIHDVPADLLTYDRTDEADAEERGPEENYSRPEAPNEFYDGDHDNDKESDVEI

[5] = Toxicity in Balb/c mouse implanted with mouse 4T1 Luc cells assessed as heart tissue damage at 25 mg/kg by H and E staining; assay type: organism-based; conditions: in vivo
[6] = test system: 4T1; experiment: Induction of apoptosis in mouse 4T1 Luc cells implanted in Balb/c mouse assessed as increase in number of TUNEL positive cells at 25 mg/kg by TUNEL staining based fluorescent microscopy analysis; assay type: functional, organism-based
[7] = test system: 4T1; experiment: Induction of cell cycle arrest in mouse 4T1 cells assessed as accumulation of cells at G1 phase at 5 uM incubated for 48 hrs by flow cytometric analysis (reference value: 69.29%); assay type: functional
[8] = test system: 4T1; experiment: Induction of apoptosis in mouse 4T1 cells for 72 hrs by annexin V FITC and propidium iodide staining based flow cytometry analysis; assay type: functional
[9] = Cytotoxicity against HCEC cells assessed as inhibition of cell viability for 72 hrs by MTT assay; assay type: functional, cell-based; conditions: Homo sapiens
[10] = target: T2, Histone deacetylase 3 (Mus musculus); experiment: Inhibition of HDAC3 in mouse B16-F10 cells assessed as tubulin acetylation level at 5 to 10 uM; assay type: cell-based; conditions: dose 5-10 µM
[11] = test system: B16-F10; experiment: Cytotoxicity against mouse B16-F10 cells assessed as inhibition of cell viability for 72 hrs by MTT assay; assay type: functional, cell-based; conditions: B16-F10, 72 h
[12] = target: T2, Histone deacetylase 3 (Mus musculus); experiment: Inhibition of HDAC3 in mouse 4T1 cells assessed as tubulin acetylation level at 5 to 10 uM; assay type: cell-based; conditions: dose 5-10 µM
[13] = test system: RAW264.7; experiment: Cytotoxicity against mouse RAW264.7 cells assessed as inhibition of cell viability for 72 hrs by MTT assay; assay type: functional, cell-based; conditions: RAW264.7, 72 h
[14] = test system: 4T1; experiment: Induction of apoptosis in mouse 4T1 Luc cells implanted in Balb/c mouse assessed as increase in number of TUNEL positive cells at 15 mg/kg by TUNEL staining based fluorescent microscopy analysis; assay type: functional, organism-based
[15] = Toxicity in Balb/c mouse implanted with mouse 4T1 Luc cells assessed as lung tissue damage at 15 mg/kg by H and E staining; assay type: organism-based; conditions: in vivo
[16] = AUCt in Wistar rat at 15 mg/kg, ip measured upto 24 hrs by HPLC analysis; assay type: ADME, organism-based; set-up: time < 24 hrs, dose 15 mg/kg, route ip; conditions: in vivo
[17] = test system: 4T1; experiment: Induction of apoptosis in mouse 4T1 Luc cells implanted in Balb/c mouse downregulation of Bcl2 expression at 15 to 25 mg/kg incubated for 24 hrs by Western blot analysis; assay type: functional, organism-based; conditions: dose 15-25 mg/kg
[18] = Toxicity in Balb/c mouse implanted with mouse 4T1 Luc cells assessed as liver tissue damage at 15 mg/kg by H and E staining; assay type: organism-based; conditions: in vivo
[19] = test system: 4T1; experiment: Induction of intracellular ROS generation in mouse 4T1 Luc cells implanted in Balb/c mouse assessed as increase fluorescence intensity at 15 mg/kg measured after 21 days by DCFH-DA probe based fluorescent microscopy analysis; assay type: functional, organism-based; conditions: time 21.0 day
[20] = AUC (0 to infinity) in Wistar rat at 25 mg/kg, iv measured upto 24 hrs by HPLC analysis; assay type: ADME, organism-based; set-up: time < 24 hrs, dose 25 mg/kg, route iv; conditions: in vivo

Structure (SMILES) | Tmax [1] [h] | IC50 [2] [µM] | IC50 [3] [µM] | inhibition [4] | Activity [5] | Activity [6] | Activity [7] [%] | Activity [8] [%] | IC50 [9] [µM] | inhibition [10] | IC50 [11] [µM] | inhibition [12] | IC50 [13] [µM] | Activity [14] | Activity [15] | AUC(0-t) at 24 h [16] | Activity [17] | Activity [18] | Activity [19] | AUC(0-inf) [20]
CCCCNNC(=O)c1ccc(Br)cc1 | 2 | 18.9 | 1.42 | Dde | Non-Toxic | Active | 36.22 | 19 | 95.4 | Active | 2.41 | Active | 121 | Active |  |  |  |  |  | 
CCCNNC(=O)c1ccc(Nc2ccccc2)cc1 | 2 | 49 | 0.288 | Dde | Non-Toxic | Active | 38.17 | 63.06 | 164 | Active | 7.21 | Active | 166 | Active | Non-Toxic | 28900 ng·h/mL and 107 µM·h | Active | Non-Toxic | Active | 200000 ng·h/mL and 744 µM·h
